Experimental data published in ChEMBL document CHEMBL1201862, “PubChem BioAssay data set” (2004).
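Results reflect a 48-hour exposure of cells in 96-well plates to compound at five concentrations. The concentration for 50% growth inhibition is given as GI50.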 Activity calls are given as the source filed them. Rule as the data show it: active = GI50 up to about 1.1 µM and inactive = higher.

Experiments:
Test in all cases: DTP human tumour cell line panel, 48 h
[1] = test system: HCT-116
[2] = test system: U-251
[3] = test system: MOLT-4
[4] = test system: OVCAR-5
[5] = test system: HCT-15
[6] = test system: HOP-62
[7] = test system: IGROV-1
[8] = test system: M14
[9] = test system: COLO 205
[10] = test system: RPMI-8226
[11] = test system: SN12C
[12] = test system: SF-539
[13] = test system: SF-295
[14] = test system: SK-MEL-28
[15] = test system: 786-0
[16] = test system: SK-MEL-5
[17] = test system: SNB-75
[18] = test system: UACC-62
[19] = test system: CAKI-1

| Structure (SMILES) | GI50 [1] | GI50 [2] | GI50 [3] | GI50 [4] | GI50 [5] | GI50 [6] | GI50 [7] | GI50 [8] | GI50 [9] | GI50 [10] | GI50 [11] | GI50 [12] | GI50 [13] | GI50 [14] | GI50 [15] | GI50 [16] | GI50 [17] | GI50 [18] | GI50 [19] |
| --- | --- | --- | --- | --- | --- | --- | --- | --- | --- | --- | --- | --- | --- | --- | --- | --- | --- | --- | --- |
| N#CCCOCN(CO)c1nc(N(CO)COCCC#N)nc(N(CO)COCCC#N)n1 | 25.7 µM (inactive) | > 100 µM (inactive) | 21.9 µM (inactive) | 35.2 µM (inactive) | 18.2 µM | > 100 µM (inactive) | > 100 µM (inactive) | 21 µM (inactive) | 18.4 µM (inactive) | 22.5 µM (inactive) | 20.4 µM (inactive) | 2.5 µM (inactive) | 21.7 µM (inactive) | 20.7 µM (inactive) | – | – | – | – | – |
| CCCCc1c2c(nc3c1CCC/C3=C\c1ccccc1)C(=O)CCC2 | 20 µM (inactive) | 15.2 µM (inactive) | 13.8 µM (inactive) | 19.5 µM (inactive) | 21.8 µM | 20.9 µM (inactive) | 18.6 µM (inactive) | 21.1 µM (inactive) | 22.8 µM (inactive) | 13.7 µM (inactive) | 19.6 µM (inactive) | 18.4 µM (inactive) | 21.2 µM (inactive) | 19.8 µM (inactive) | 25.2 µM (inactive) | 16.3 µM (inactive) | 29.1 µM (inactive) | 22.6 µM (inactive) | – |
| Cc1cc2c(C)nn(Cc3ccc(Cl)cc3)c2c(C#N)c1C | > 100 µM (inactive) | > 100 µM (inactive) | > 10 µM (inactive) | > 100 µM (inactive) | > 100 µM | > 100 µM (inactive) | > 100 µM (inactive) | – | > 100 µM (inactive) | > 100 µM (inactive) | > 100 µM (inactive) | > 100 µM (inactive) | 46.2 µM (inactive) | > 100 µM (inactive) | 63.2 µM (inactive) | – | – | > 100 µM (inactive) | – |
| C=C(c1ccccc1)c1cc2c(=O)[nH]ccc2n1C | – | – | 27.2 µM (inactive) | 44.2 µM (inactive) | 27.3 µM | 25 µM (inactive) | 44.4 µM (inactive) | 29.2 µM (inactive) | 15.9 µM (inactive) | 24.7 µM (inactive) | 34.2 µM (inactive) | – | 29.9 µM (inactive) | 44.7 µM (inactive) | 27.5 µM (inactive) | 26 µM (inactive) | 11.9 µM (inactive) | 28.5 µM (inactive) | 33.2 µM (inactive) |
| c1cncc(CSc2nc3ccccc3nc2-c2cccs2)c1 | > 100 µM (inactive) | – | 24.8 µM (inactive) | > 100 µM (inactive) | 81.1 µM | 71.3 µM (inactive) | – | 92.5 µM (inactive) | > 100 µM (inactive) | 32.8 µM (inactive) | 77.1 µM (inactive) | 71.8 µM (inactive) | > 100 µM (inactive) | > 100 µM (inactive) | 58.2 µM (inactive) | > 100 µM (inactive) | > 100 µM (inactive) | – | > 10 µM (inactive) |
| Cc1cc(Br)ccc1/N=N/C1C(=O)ON=C1c1ccccc1 (stereo unspecified) | 46.5 µM (inactive) | > 100 µM (inactive) | 31.3 µM (inactive) | > 100 µM (inactive) | – | > 100 µM (inactive) | > 100 µM (inactive) | > 100 µM (inactive) | 16 µM (inactive) | 28.4 µM (inactive) | > 100 µM (inactive) | > 100 µM (inactive) | > 100 µM (inactive) | > 100 µM (inactive) | > 100 µM (inactive) | 53.5 µM (inactive) | > 100 µM (inactive) | > 100 µM (inactive) | – |
| N#CC(C(=O)C(=O)Nc1ccccc1)c1ccccc1 (stereo unspecified) | > 100 µM (inactive) | > 100 µM (inactive) | > 100 µM (inactive) | – | > 100 µM | – | > 100 µM (inactive) | > 100 µM (inactive) | – | > 100 µM (inactive) | > 100 µM (inactive) | > 100 µM (inactive) | > 100 µM (inactive) | > 100 µM (inactive) | > 100 µM (inactive) | – | > 100 µM (inactive) | > 100 µM (inactive) | > 100 µM (inactive) |
| COC(=O)C(/C(=N/NC(N)=O)C(=O)Nc1c(C)cccc1C(C)(C)C)c1nc2ccc(Cl)cc2nc1O (stereo unspecified) | > 100 µM (inactive) | > 100 µM (inactive) | > 100 µM (inactive) | > 100 µM (inactive) | > 100 µM | > 100 µM (inactive) | > 100 µM (inactive) | > 100 µM (inactive) | – | > 100 µM (inactive) | > 100 µM (inactive) | > 100 µM (inactive) | > 100 µM (inactive) | > 100 µM (inactive) | > 100 µM (inactive) | > 100 µM (inactive) | > 100 µM (inactive) | > 100 µM (inactive) | > 100 µM (inactive) |
| COc1ccc(NC(=O)CCc2cc(-c3ccc(O)c(OC)c3)nc(NC#N)n2)cc1 | > 100 µM (inactive) | > 100 µM (inactive) | > 100 µM (inactive) | > 100 µM (inactive) | > 100 µM | > 100 µM (inactive) | > 100 µM (inactive) | > 100 µM (inactive) | > 100 µM (inactive) | – | > 100 µM (inactive) | > 100 µM (inactive) | > 100 µM (inactive) | > 100 µM (inactive) | > 100 µM (inactive) | – | – | > 100 µM (inactive) | > 100 µM (inactive) |
| COc1cc([N+](=O)[O-])ccc1NC(=O)c1cccc([N+](=O)[O-])c1O | 26.4 µM (inactive) | 40.1 µM (inactive) | 30.9 µM (inactive) | 41.3 µM (inactive) | 18.1 µM | 36.6 µM (inactive) | 14.1 µM (inactive) | 45 µM (inactive) | 16 µM (inactive) | 10.3 µM (inactive) | 14.7 µM (inactive) | 23.1 µM (inactive) | 23.4 µM (inactive) | 21.6 µM (inactive) | – | 6.46 µM (inactive) | 21.1 µM (inactive) | 9.2 µM (inactive) | 17 µM (inactive) |
| CC(=O)n1c(=O)c2cc3c(=O)n(-c4cccc(C#N)c4)c(=O)c3cc2c1=O | > 100 µM (inactive) | 24.2 µM (inactive) | – | > 100 µM (inactive) | > 100 µM | 45.5 µM (inactive) | > 100 µM (inactive) | > 100 µM (inactive) | > 100 µM (inactive) | – | > 100 µM (inactive) | > 100 µM (inactive) | 60.7 µM (inactive) | > 100 µM (inactive) | 90.4 µM (inactive) | > 100 µM (inactive) | 23.7 µM (inactive) | > 100 µM (inactive) | > 100 µM (inactive) |
| CS(=O)(=O)C1(Br)S(=O)(=O)OCCOS1(=O)=O | > 100 µM (inactive) | > 100 µM (inactive) | > 100 µM (inactive) | > 100 µM (inactive) | > 100 µM | > 100 µM (inactive) | > 100 µM (inactive) | > 100 µM (inactive) | > 100 µM (inactive) | > 100 µM (inactive) | > 100 µM (inactive) | > 100 µM (inactive) | > 100 µM (inactive) | > 100 µM (inactive) | > 100 µM (inactive) | > 100 µM (inactive) | > 100 µM (inactive) | > 100 µM (inactive) | – |
| CSc1nc2nccnc2c(=O)[nH]1 | > 100 µM (inactive) | > 100 µM (inactive) | > 100 µM (inactive) | > 100 µM (inactive) | > 100 µM | > 100 µM (inactive) | > 100 µM (inactive) | > 100 µM (inactive) | > 100 µM (inactive) | > 100 µM (inactive) | > 100 µM (inactive) | – | > 100 µM (inactive) | > 100 µM (inactive) | > 100 µM (inactive) | > 100 µM (inactive) | > 100 µM (inactive) | > 100 µM (inactive) | > 100 µM (inactive) |
| O=C(O)CCSC(=O)Nc1ccc([N+](=O)[O-])cc1 | > 100 µM (inactive) | > 100 µM (inactive) | > 100 µM (inactive) | – | > 100 µM | > 100 µM (inactive) | 72.8 µM (inactive) | > 100 µM (inactive) | > 100 µM (inactive) | > 100 µM (inactive) | > 100 µM (inactive) | > 100 µM (inactive) | > 100 µM (inactive) | > 100 µM (inactive) | > 100 µM (inactive) | – | 19.4 µM (inactive) | – | > 100 µM (inactive) |
| Cc1cc(C)n2c(-c3ccccc3)c(C)cc2n1 | 67.8 µM (inactive) | 34 µM (inactive) | – | > 100 µM (inactive) | 16.7 µM | 53.7 µM (inactive) | 66.2 µM (inactive) | 43.5 µM (inactive) | 43.5 µM (inactive) | – | 50.5 µM (inactive) | 24.3 µM (inactive) | 48 µM (inactive) | > 100 µM (inactive) | 78 µM (inactive) | 26.9 µM (inactive) | 23.1 µM (inactive) | 28.2 µM (inactive) | 30.9 µM (inactive) |
| CCN(/N=C1\CC2C=CCN(C2)C(=O)Cc2c1[nH]c1ccccc21)S(=O)(=O)c1ccc(C)cc1 (stereo unspecified) | 85.9 µM (inactive) | > 100 µM (inactive) | 59.4 µM (inactive) | – | 85.9 µM | – | 68.4 µM (inactive) | – | 68.2 µM (inactive) | 63.1 µM (inactive) | 86.7 µM (inactive) | > 100 µM (inactive) | 71.1 µM (inactive) | – | > 100 µM (inactive) | 56.6 µM (inactive) | 35.6 µM (inactive) | 38.8 µM (inactive) | 25.4 µM (inactive) |
| O=[N+]([O-])C1C2C=CC(C2)[C@H]1c1ccco1 (stereo partly specified) | > 100 µM (inactive) | > 100 µM (inactive) | > 100 µM (inactive) | > 100 µM (inactive) | > 100 µM | > 100 µM (inactive) | > 100 µM (inactive) | > 100 µM (inactive) | > 100 µM (inactive) | – | > 100 µM (inactive) | > 100 µM (inactive) | > 100 µM (inactive) | – | > 100 µM (inactive) | > 100 µM (inactive) | > 100 µM (inactive) | > 100 µM (inactive) | > 100 µM (inactive) |
